Reference: publication PMC6629785, “Synthesis and Pharmacological Evaluation of a Novel Peptide Based on Anemonia sulcata BDS-I Toxin as a New KV3.4 Inhibitor Exerting a Neuroprotective Effect Against Amyloid-β Peptide” (Frontiers in Chemistry, 2019)
Ends that are not written are not given here.

Test system: KV3.4 currents
Experiment: Whole-cell patch clamp of KV3.4 currents in NGF-differentiated PC-12 cells, control or exposed to Aβ1−42
Format: cell-based, Rat
Details: peak of +40 mV pulse, 6 to 10 cells, 3 sessions; for effect on KV3.4 activity in NGF-differentiated PC-12 cells: 100 nM, control condition (no Aβ1−42); for effect on KV3.4 upregulation elicited by Aβ1−42 exposure: peptide 100 nM, 30 min pre-treatment, Aβ1−42 oligomers 5 μM for 24 h
Description: Rat pheochromocytoma cells (PC-12 cells) were grown as previously described (Pannaccione et al., [2005], [2007]). For all the experiments, cells were seeded at low density on glass cover-slips coated with poly-L-lysine (50 μg/ml). Differentiation of PC-12 cells was achieved by treatment with neuronal growth factor (NGF) 2.5 S (50 ng/ml) for 7–9 days (Greene and Tischler, [1976]). For electrophysiological experiments, cells were seeded on glass cover-slips and used after 7–9 days of NGF.
Currents from CHO cells were recorded at room temperature 1-2 days after transfection. The extracellular solution contained the following (in mM): 138 NaCl, 5.4 KCl, 2 CaCl2, 1 MgCl2, 10 glucose and 10 HEPES, adjusted pH 7.4 with NaOH. The pipette solution contained (in mM) the following: 140 KCl, 2 MgCl2, 10 EGTA, 10 HEPES, 5 Mg-ATP, adjusted pH 7.4 with KOH (Miceli et al., [2015]). KV3.4 currents were measured by applying voltage steps from −100 mV to +60 mV from a holding potential of −80 mV (Abbott et al., [2001]). Moreover, the total outward K^+ currents were recorded in NGF-differentiated PC-12 cells using the extracellular solution contained the following (in mM): 150 NaCl, 5.4 KCl, 3 CaCl2, 1 MgCl2, 10 HEPES, adjusted pH 7.4 with NaOH. The pipette solution contained the following (in mM): 140 KCl, 2 MgCl2, 10 HEPES, 10 glucose, 10 EGTA, and 1 Mg-ATP adjusted at pH 7.4 with KOH (Diochot et al., [1998]). All experiments were performed in the presence of 50 nM tetrodotoxin (TTX) and 10 μ M nimodipine in the extracellular solution. To discriminate K^+ current components appropriate electrophysiological protocols were used (Pannaccione et al., [2007]). Steady-state activation and inactivation properties were measured by using appropriate protocols (Pannaccione et al., [2005]). […] The capacitance of the membrane was calculated according to the following equation: Cm = τc·Io/ΔEm (1-I∞/Io), where Cm is membrane capacitance, τc is the time constant of the membrane capacitance, Io is the maximum capacitance current value, ΔEm is the amplitude of the voltage step, and I∞ is the amplitude of the steady-state current. K^+ currents were recorded by patch-clamp technique in CHO and NGF-differentiated PC-12 cells using a commercially available amplifier (Axopatch 200B, Molecular Devices) and Digidata 1322A interface (Molecular Devices, USA). […] Data were acquired and analyzed using the pClamp software (version 9, Molecular Devices). […]
The peptide used in our study was synthesized by INBIOS (Pozzuoli, Naples, Italy) using the Aβ1−42 sequence of human APP [UniProtKB-P05067 (A4_HUMAN)]. The purity of the peptide was assessed by high-performance liquid chromatography (>95% pure) and the amino acid composition was verified by mass spectrometry. […]

H-GSAFAPAA-OH [BDS-I[1-8scr]]
effect on KV3.4 activity in NGF-differentiated PC-12 cells: did not exert any effect | effect on KV3.4 upregulation elicited by Aβ1−42 exposure: did not counteract

AAPAFASG [BDS-I[1-8]]
effect on KV3.4 activity in NGF-differentiated PC-12 cells: blocked KV3.4 activity | effect on KV3.4 upregulation elicited by Aβ1−42 exposure: prevented
